Measurements: article PMC11879280, “Antimicrobial activity of peptoids against Metallo-β-lactamase-producing Klebsiella pneumoniae, Acinetobacter baumannii, Pseudomonas aeruginosa, and other WHO priority pathogens, including Candida auris” (Journal of Applied Microbiology, 2025)
Read-outs that look alike come from different tables or passages of the source. Square brackets hold non-standard residues; d marks the D form. Ends that are not written are not given here. Peptide text beside a SMILES is read from it. Nspe(4-Br) = C[C@H](NCC(=O)O)c1ccc(Br)cc1; N(tridecyl)Gly = CCCCCCCCCCCCCNCC(=O)O; Nspe = C[C@H](NCC(=O)O)c1ccccc1; Nlys = NCCCCNCC(=O)O

Legend:
[1] = test system: MBL phenotypes of A. baumannii; details: MBL phenotypes of A. baumannii
Description: Briefly, bacteria were suspended in cation-adjusted Mueller–Hinton broth (CAMHB; Oxoid, UK) for antibiotics, or MHB (Oxoid, UK) for peptidomimetics to obtain 5 × 10^5 colony forming unit (CFU) ml^−1. […] Positive controls contained only microbes, and blanks contained only media. Microbial suspensions (100 µl) were added to wells, plates wrapped, and incubated at 37°C, 120 rpm for 16–20 h. […] Geometric mean MIC of the peptoids were calculated to evaluate the broad overview of antimicrobial activity across the pathogens.

Enterobacteriaceae = experiment: Geometric mean MIC, therapeutic index and selectivity ratio, Enterobacteriaceae; assay type: cell-based; details: Enterobacteriaceae (E. coli, K. pneumoniae, and E. aerogenes)
Description: (§1) Briefly, bacteria were suspended in cation-adjusted Mueller–Hinton broth (CAMHB; Oxoid, UK) for antibiotics, or MHB (Oxoid, UK) for peptidomimetics to obtain 5 × 10^5 colony forming unit (CFU) ml^−1. […] Positive controls contained only microbes, and blanks contained only media. Microbial suspensions (100 µl) were added to wells, plates wrapped, and incubated at 37°C, 120 rpm for 16–20 h. After incubation, suspensions were removed, log10 diluted, and plated on Trypticase Soya Agar with phosphatidylcholine and Tween 80 to determine minimum bactericidal or fungicidal concentration (MBC or MFC). […] Geometric mean MIC of the peptoids were calculated to evaluate the broad overview of antimicrobial activity across the pathogens.
(§2) The therapeutic indices (TIs) of the compounds were calculated with the use of following formula: […]

[2] = test system: horse red blood cells (RBCs); experiment: Haemolysis assay; assay type: cell-based
Description: The haemolytic activity of the peptidomimetics was performed to determine mammalian cell safety. This assay used horse red blood cells (RBCs) (Sigma–Aldrich, USA) as described previously (Willcox et al. [2008], Chongsiriwatana et al. [2017], Yasir et al. [2019b]). RBCs were washed three times with PBS at 470 g for 5 min. Peptoids (0.5–250 μg ml^−1) were prepared in PBS and added to washed RBCs, then incubated at 37°C for 4 h. After incubation, cells were centrifuged at 1057 g for 10 min, and the supernatant’s OD at 540 nm was measured for lysis. PBS-only RBCs served as the negative control (no haemolysis), and Milli-Q water-treated RBCs as the positive control (100% lysis). Percent haemolysis was calculated as: (ODT − ODNC)/(ODPC − ODNC) × 100, where ODT, ODNC, and ODPC are the absorbances of the test, negative, and positive controls, respectively. This experiment was performed in triplicate.

MBL-producing bacteria = experiment: Geometric mean MIC, therapeutic index and selectivity ratio, MBL-producing bacteria; assay type: cell-based
Description: as §1
The test was performed as per the manufacturer’s instructions. Briefly, the strips were applied to a lawn culture of bacteria maintained at 1.5 × 10^8 CFU ml^−1 on Mueller–Hinton agar (Oxoid, UK) and incubated for 20 h at 37°C.
as §2

C. auris strains = details: two C. auris strains
Description: as §1, §2

C. auris CBS12373 = experiment: Broth microdilution MIC; assay type: cell-based, Candida auris
[3] = CBS 10 913, RPMI 1640 with MOPS, 5 × 10^3 CFU ml^−1, ≥90% reduction (≥50% for fluconazole)
[4] = horse RBCs in PBS, 37°C, 4 h, value in brackets
[5] = CBS 12 373, RPMI 1640 with MOPS, 5 × 10^3 CFU ml^−1, ≥90% reduction (≥50% for fluconazole)
[6] = horse RBCs in PBS, 37°C, 4 h, OD 540 nm, triplicate, best fit curve

Row | Compound | MIC against C. auris (C. auris CBS10913; [3]) [µg/mL] | MIC against C. auris (C. auris CBS10913; CBS10913) [µM] | MIC [1] [µg/mL] | Geometric mean MICE (Enterobacteriaceae) [µg/mL] | HD10 (10% haemolytic dose) [2, 4] [µmol/L] | HD50 (50% haemolytic dose) [2, 4] [µmol/L] | HD10 (10% haemolytic dose) ([2]; red cells of horse, 4 h) [µg/mL] | HD50 (50% haemolytic dose) ([2]; red cells of horse, 4 h) [µg/mL] | Geometric mean MICMBL (MBL-producing bacteria) [µg/mL] | Geometric mean MICCA (C. auris strains) [µg/mL] | MIC against C. auris (C. auris CBS12373; [5]) [µg/mL] | MIC against C. auris (C. auris CBS12373; CBS12373) [µM] | HD10 (10% haemolytic dose) [2] [µmol/L] | HD50 (50% haemolytic dose) [2] [µmol/L] | MIC against C. auris (C. auris CBS10913; CBS 10 913, value in brackets) [µM] | HD10 (10% haemolytic dose) [2, 6] [µg/mL] | HD50 (50% haemolytic dose) [2, 6] [µg/mL] | MIC against C. auris (C. auris CBS12373; CBS 12 373, value in brackets) [µM]
1 | C[C@@H](c1ccccc1)N(CC(N)=O)C(=O)CN(C(=O)CN(CCCCN)C(=O)CN(C(=O)CN(C(=O)CN(CCCCN)C(=O)CN(C(=O)CN(C(=O)CN(CCCCN)C(=O)CN(C(=O)CN(C(=O)CNCCCCN)[C@@H](C)c1ccccc1)[C@@H](C)c1ccccc1)[C@@H](C)c1ccccc1)[C@@H](C)c1ccccc1)[C@@H](C)c1ccccc1)[C@@H](C)c1ccccc1)[C@@H](C)c1ccccc1 [TM1] (H-[Nlys][Nspe][Nspe][Nlys][Nspe][Nspe][Nlys][Nspe][Nspe][Nlys][Nspe][Nspe]-NH2) | 15.6 | 8.6 | ≤ 7.8 | 23.7 | 4.4 | 24.6 | 8 | 44.8 | 11.0 | 7.8 | 3.9 | 2.1 | – | – | – | – | – | –
2 | C[C@@H](c1ccc(Br)cc1)N(CC(N)=O)C(=O)CN(C(=O)CN(CCCCN)C(=O)CN(C(=O)CN(C(=O)CNCCCCN)[C@@H](C)c1ccccc1)[C@@H](C)c1ccc(Br)cc1)[C@@H](C)c1ccccc1 [TM2] (H-[Nlys][Nspe][Nspe(4-Br)][Nlys][Nspe][Nspe(4-Br)]-NH2) | 31.25 | 29 | – | 58.3 | – | – | 20 | 64 | 28.7 | 11.1 | 3.9 | 3.6 | 18.6 | 59.5 | – | – | – | –
3 | C[C@@H](c1ccccc1)N(CC(N)=O)C(=O)CN(CCCCN)C(=O)CN(C(=O)CN(C(=O)CN(CCCCN)C(=O)CN(C(=O)CN(C(=O)CN(CCCCN)C(=O)CN(C(=O)CN(C(=O)CNCCCCN)[C@@H](C)c1ccccc1)[C@@H](C)c1ccccc1)[C@@H](C)c1ccccc1)[C@@H](C)c1ccccc1)[C@@H](C)c1ccccc1)[C@@H](C)c1ccccc1 [TM6] (H-[Nlys][Nspe][Nspe][Nlys][Nspe][Nspe][Nlys][Nspe][Nspe][Nlys][Nspe]-NH2) | 31.25 | – | – | 29.1 | 26.1 | > 154.4 | – | – | 18.6 | 7.9 | 2 | – | – | – | 18.8 | 43.2 | > 256 | 1.2
4 | C[C@@H](c1ccc(Br)cc1)N(CC(=O)N(CCCCN)CC(=O)N(CC(=O)N(CC(=O)N(CCCCN)CC(N)=O)[C@@H](C)c1ccc(Br)cc1)[C@@H](C)c1ccccc1)C(=O)CN(C(=O)CNCCCCN)[C@@H](C)c1ccccc1 [TM12] (H-[Nlys][Nspe][Nspe(4-Br)][Nlys][Nspe][Nspe(4-Br)][Nlys]-NH2) | 62.5 | 51.9 | – | 47.4 | – | – | 80 | > 256 | 62.5 | 15.6 | 3.9 | 3.2 | 66.4 | 212.6 | – | – | – | –
5 | C[C@@H](c1ccc(Br)cc1)N(CC(=O)N(CCCCN)CC(=O)N(CC(=O)N(CC(=O)N(CCCCN)CC(N)=O)[C@@H](C)c1ccc(Br)cc1)[C@@H](C)c1ccc(Br)cc1)C(=O)CN(C(=O)CNCCCCN)[C@@H](C)c1ccc(Br)cc1 [TM14] (H-[Nlys][Nspe(4-Br)][Nspe(4-Br)][Nlys][Nspe(4-Br)][Nspe(4-Br)][Nlys]-NH2) | 15.6 | 11.5 | – | 31.3 | – | – | 9.6 | 24 | 24.1 | 7.8 | 3.9 | 2.9 | 7.0 | 17.6 | – | – | – | –
6 | CCCCCCCCCCCCCNCC(=O)N(CCCCN)CC(=O)N(CC(=O)N(CC(=O)N(CCCCN)CC(=O)N(CCCCN)CC(N)=O)[C@@H](C)c1ccccc1)[C@@H](C)c1ccccc1 [TM15] (H-[N(tridecyl)Gly][Nlys][Nspe][Nspe][Nlys][Nlys]-NH2) | 250 | 259.6 | – | 50.8 | – | – | 23.6 | 86.4 | 52.6 | – | 3.9 | 4.0 | 24.5 | 89.7 | – | – | – | –
7 | KNKRKRRRRRRGGRRRR [Mel4] | 125 | – | – | 164.9 | > 109 | > 109 | – | – | 162.1 | 22.1 | 3.9 | – | – | – | – | > 256 | > 256 | –
8 | TLISWIKNKRKQRPRVSRRRRRRGGRRRR [Melimine] | 125 | – | – | 189.5 | > 67.6 | > 67.7 | – | – | 162.1 | 22.1 | 3.9 | – | – | – | 33.0 | > 256 | > 256 | 1.03
